Tests used:
W158I^4.56 H1R [1] = biological target: T1, W158I^4.56 H1R (Homo sapiens, UniProt P35367, W158I)
D231F^5.35 5-HT2AR = D231F^5.35 5-HT2AR (Homo sapiens, UniProt P28223, D231F); assay: Exploratory saturation radioligand binding at point-mutated 5-HT2AR; details: membranes of transfected HEK293 cells (FIGS. 14A-14D)
W158I^4.56 H1R [2] = biological target: T1, W158I^4.56 H1R; remark: listed apart in the source
human wild-type H1R = human wild-type H1R (Homo sapiens, UniProt P35367); assay: IP-One HTRF IP1 accumulation assay; details: competitive antagonism of histamine-stimulated IP1 accumulation (10 μM histamine)
male C57BL/6J mice [3] = assay: (±)-DOI-elicited head twitch response
human wild-type 5-HT2B = human wild-type 5-HT2B (Homo sapiens, UniProt P41595); assay: IP-One HTRF IP1 accumulation assay
5-HT2BR = 5-HT2BR (Homo sapiens, UniProt P41595)
male C57BL/6J mice [4] = assay: Locomotor activity after (±)-DOI (open field); details: pretreatment 0.3 mg*kg^−1 s.c., compared to saline pretreatment (FIG. 3B)
H1R = biological target: T2, H1R (Homo sapiens, UniProt P35367); assay: Radioligand binding (competitive displacement and saturation), cell membranes; details: displacement of [^3H]mepyramine; mean of n independent experiments, ± SD where n ≥ 5
T2 construct: host or cells: CHO, transient
Protocol: Transfections were performed for 48 hours.

male C57BL/6J mice [5] = assay: Locomotor activity, compound alone (open field); format: in vivo; details: 3 mg*kg^−1 s.c. (FIG. 3C)

T1 sequence (P35367 whole entry W158I): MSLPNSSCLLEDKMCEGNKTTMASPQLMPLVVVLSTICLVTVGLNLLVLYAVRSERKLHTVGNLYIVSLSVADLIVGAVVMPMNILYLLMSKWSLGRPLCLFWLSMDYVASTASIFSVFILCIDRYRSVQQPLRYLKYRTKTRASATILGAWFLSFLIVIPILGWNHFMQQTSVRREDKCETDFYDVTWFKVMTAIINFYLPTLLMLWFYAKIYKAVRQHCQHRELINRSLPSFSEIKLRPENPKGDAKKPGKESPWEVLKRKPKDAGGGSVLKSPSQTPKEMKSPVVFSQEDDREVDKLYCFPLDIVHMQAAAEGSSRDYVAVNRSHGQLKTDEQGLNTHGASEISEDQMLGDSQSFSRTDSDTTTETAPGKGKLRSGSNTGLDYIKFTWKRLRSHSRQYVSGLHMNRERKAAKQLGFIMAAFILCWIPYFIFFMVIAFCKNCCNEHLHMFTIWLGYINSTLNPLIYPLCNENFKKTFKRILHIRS
Sequence of D231F^5.35 5-HT2AR (P28223 whole entry D231F): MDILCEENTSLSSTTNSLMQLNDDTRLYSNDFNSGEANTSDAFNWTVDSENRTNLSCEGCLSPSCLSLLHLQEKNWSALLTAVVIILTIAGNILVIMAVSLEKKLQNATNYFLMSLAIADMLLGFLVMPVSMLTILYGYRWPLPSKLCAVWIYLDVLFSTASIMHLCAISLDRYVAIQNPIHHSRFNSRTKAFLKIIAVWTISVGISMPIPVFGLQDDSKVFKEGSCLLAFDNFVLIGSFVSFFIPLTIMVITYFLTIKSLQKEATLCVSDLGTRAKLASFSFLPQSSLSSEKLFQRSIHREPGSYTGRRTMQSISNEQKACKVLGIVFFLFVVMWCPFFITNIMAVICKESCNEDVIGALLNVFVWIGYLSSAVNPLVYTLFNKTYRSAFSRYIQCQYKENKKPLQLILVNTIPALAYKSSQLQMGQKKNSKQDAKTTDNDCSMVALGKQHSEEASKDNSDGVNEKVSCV
T2 sequence (P35367 whole entry): as the sequence (P35367 whole entry W158I) above, with I158W counted along it
Sequence of human wild-type H1R (P35367 whole entry): as the sequence (P35367 whole entry W158I) above, with I158W counted along it
Sequence of human wild-type 5-HT2B (P41595 whole entry): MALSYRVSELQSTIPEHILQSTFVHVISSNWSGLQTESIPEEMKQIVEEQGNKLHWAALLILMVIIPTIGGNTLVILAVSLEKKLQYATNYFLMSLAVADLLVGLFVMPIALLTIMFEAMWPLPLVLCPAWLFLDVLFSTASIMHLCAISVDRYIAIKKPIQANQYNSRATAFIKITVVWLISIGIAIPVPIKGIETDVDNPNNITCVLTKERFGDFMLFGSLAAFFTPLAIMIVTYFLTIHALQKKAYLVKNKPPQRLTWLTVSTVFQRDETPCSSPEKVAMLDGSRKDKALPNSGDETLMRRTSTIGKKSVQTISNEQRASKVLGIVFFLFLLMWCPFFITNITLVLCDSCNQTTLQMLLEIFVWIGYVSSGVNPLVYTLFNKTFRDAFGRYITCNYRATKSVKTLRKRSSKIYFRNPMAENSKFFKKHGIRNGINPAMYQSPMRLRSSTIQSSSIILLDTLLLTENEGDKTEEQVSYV
Sequence of 5-HT2BR (P41595 whole entry): as above

`NCCc1c[nH]cn1` [histamine] was tested, and the “IP1 accumulation at W158I^4.56 H1Rs in response to histamine” value (W158I^4.56 H1R [1]) was “unable to stimulate IP1 accumulation”.
With `[3H]C([3H])(N1CCC(C(=O)c2ccc(F)cc2)CC1)C([3H])([3H])n1c(=O)[nH]c2ccccc2c1=O` [[^3H]Ketanserin] the “specific binding to D231F^5.35 5-HT2ARs” value (D231F^5.35 5-HT2AR) was “no specific binding is detected” and the “specific binding to W158I^4.56 H1Rs” value (W158I^4.56 H1R [2]) was “cannot be detected”.
For `CC(C)COc1ccc(CNC(=O)N(Cc2ccc(F)cc2)C2CCN(C)CC2)cc1` [PIMA, pimavanserin, reference compound], the “pKb at H1Rs” value (human wild-type H1R) was “little, if any, antagonism”, the “attenuation of head twitch response compared with the same dose of (2S,4R)-2k” value (male C57BL/6J mice [3]; 0.3 mg*kg^−1 s.c.) was “significantly more effective” and the “head twitch response elicited by (±)-DOI” value (male C57BL/6J mice [3]; 1 mg*kg^−1 (±)-DOI s.c., pretreatment s.c., every dose tested (PIMA, (2S,4R)-2k 0.3 or 3 mg kg^−1, (2R,4R)-3h 3.0 or 5.6 mg kg^−1)) was “significantly attenuated the head twitch response”. The Kb (human wild-type 5-HT2B) was 1380 nM, the Ki (5-HT2BR) was 437 nM and the “locomotor activity (distance traveled) of mice given 1 mg*kg^−1 DOI” value (male C57BL/6J mice [4]) was “locomotor suppression”. For the same compound, the “pKi H1R” value (H1R) was 5.50^(2) and the “locomotor activity, compound administered alone” value (male C57BL/6J mice [5]) was “suppresses locomotor activity”.

Reference: patent publication US20240327353A1
